Data reported in patent US10131652B2, “Pyrimidinyloxy benzene derivatives as herbicides” (E. I. DU PONT DE NEMOURS AND COMPANY, priority 2014, dated 2018).

Assays:
Assay type in all cases: in vivo
[1] = tested on: yellow nutsedge (Cyperus esculentus); assay: Test D pre-/postemergence plant response
Excerpt: (§1) Seeds of plant species selected from blackgrass (Alopecurus myosuroides), Italian ryegrass (Lolium multiflorum), winter wheat (Triticum aestivum), galium (catchweed bedstraw, Galium aparine), corn (Zea mays), large (Lg) crabgrass (Digitaria sanguinalis), giant foxtail (Setaria faberii), johnsongrass (Sorghum halepense), lambsquarters (Chenopodium album), morningglory (Ipomoea coccinea), yellow nutsedge (Cyperus esculentus), pigweed (Amaranthus retroflexus), ragweed (common ragweed, Ambrosia elatior), soybean (Glycine max), bamyardgrass (Echinochloa crus-galli), oilseed rape (Brassica napus), waterhemp (common waterhemp, Amaranthus rudis), and velvetleaf (Abutilon theophrasti) were planted into a blend of loam soil and sand and treated preemergence with test chemicals formulated in a non-phytotoxic solvent mixture which included a surfactant. At the same time, plants selected from these crop and weed species and also kochia (Kochia scoparia), wild oat (Avena fatua), and chickweed (common chickweed, Stellaria media) were planted in pots containing Redi-Earth® planting medium (Scotts Company, 14111 Scottslawn Road, Marysville, Ohio 43041) comprising spaghnum peat moss, vermiculite, wetting agent and starter nutrients and treated with postemergence applications of test chemicals formulated in the same manner. Plants ranged in height from 2 to 18 cm (1- to 4-leaf stage) for postemergence treatments. Treated plants and controls were maintained in a greenhouse for 13 to 15 days, after which time all species were compared to controls and visually evaluated. Plant response ratings, summarized in Table D, are based on a scale of 0 to 100 where 0 is no effect and 100 is complete control. A dash (-) response means no test result.

[2] = tested on: morningglory (Ipomoea coccinea); assay: Test D pre-/postemergence plant response
Excerpt: as §1

[3] = tested on: Italian ryegrass (Lolium multiflorum); assay: Test D pre-/postemergence plant response
Excerpt: as §1

[4] = tested on: ragweed (common ragweed, Ambrosia elatior); assay: Test D pre-/postemergence plant response
Excerpt: as §1

[5] = tested on: waterhemp (common waterhemp, Amaranthus rudis); assay: Test D pre-/postemergence plant response
Excerpt: as §1

[6] = tested on: winter wheat (Triticum aestivum); assay: Test D pre-/postemergence plant response
Excerpt: as §1

[7] = tested on: lambsquarters (Chenopodium album); assay: Test D pre-/postemergence plant response
Excerpt: as §1

[8] = tested on: large (Lg) crabgrass (Digitaria sanguinalis); assay: Test D pre-/postemergence plant response
Excerpt: as §1

[9] = tested on: galium (catchweed bedstraw, Galium aparine); assay: Test D pre-/postemergence plant response
Excerpt: as §1

[10] = tested on: soybean (Glycine max); assay: Test D pre-/postemergence plant response
Excerpt: as §1

[11] = tested on: corn (Zea mays); assay: Test D pre-/postemergence plant response
Excerpt: as §1

[12] = tested on: wheat (Triticum aestivum); assay: Test B pre-/postemergence plant response
In short: (§2)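 Steps: plant seeds in loam soil–sand mix; spray soil preemergence, and in parallel spray 2–10 cm one- to two-leaf plants postemergence; hold ~10 days in greenhouse; visually rate injury against untreated controls (0 = no effect, 100 = complete control).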

[13] = tested on: pigweed (Amaranthus retroflexus); assay: Test B pre-/postemergence plant response
In short: as §2

[14] = tested on: giant foxtail (Setaria faberii); assay: Test B pre-/postemergence plant response
In short: as §2

[15] = tested on: barnyardgrass (Echinochloa crus-galli); assay: Test B pre-/postemergence plant response
In short: as §2

[16] = tested on: corn (Zea mays); assay: Test B pre-/postemergence plant response
In short: as §2

[17] = Postemergence, 16 g ai/ha, scale 0 to 100 (0 no effect, 100 complete control)
[18] = Postemergence, 31 g ai/ha, scale 0 to 100 (0 no effect, 100 complete control)
[19] = Postemergence, 62 g ai/ha, scale 0 to 100, 0 no effect, 100 complete control
[20] = Postemergence, 125 g ai/ha, scale 0 to 100, 0 no effect, 100 complete control
[21] = Preemergence, 16 g ai/ha, scale 0 to 100 (0 no effect, 100 complete control)
[22] = Preemergence, 31 g ai/ha, scale 0 to 100 (0 no effect, 100 complete control)
[23] = Preemergence, 62 g ai/ha, scale 0 to 100 (0 no effect, 100 complete control)
[24] = 125 g ai/ha, postemergence, 0 to 100 scale, 0 no effect, 100 complete control
[25] = Postemergence, 500 g ai/ha, 0 to 100 scale (0 no effect, 100 complete control)
[26] = Preemergence, 125 g ai/ha, 0 to 100 scale where 0 is no effect and 100 is complete control
[27] = Preemergence, 500 g ai/ha, 0 to 100 scale where 0 is no effect and 100 is complete control

Cc1cc(-c2ccccc2Oc2ncc(Cl)cn2)no1 [Compound 60]
Nutsedge, Yellow plant response rating [1, 17]: 0
Nutsedge, Yellow plant response rating [1, 18]: 0
Plant response rating, Nutsedge, Yellow [1, 19]: 0
Plant response rating, Nutsedge, Yellow [1, 20]: 5
Plant response rating (scale 0 to 100), Nutsedge, Yellow ([1]; Preemergence, 125 g ai/ha): 5
Plant response rating, Nutsedge, Yellow [1, 21]: 0
Plant response rating, Nutsedge, Yellow [1, 22]: 0
Plant response rating, Nutsedge, Yellow [1, 23]: 0
Morningglory plant response rating [2, 17]: 0
Morningglory plant response rating [2, 18]: 40
Plant response rating, Morningglory [2, 19]: 25
Plant response rating, Morningglory [2, 20]: 40
Plant response rating (scale 0 to 100), Morningglory ([2]; Preemergence, 125 g ai/ha): 20
Plant response rating, Morningglory [2, 21]: 0
Plant response rating, Morningglory [2, 22]: 0
Plant response rating, Morningglory [2, 23]: 10
Ryegrass, Italian plant response rating [3, 17]: 0
Ryegrass, Italian plant response rating [3, 18]: 0
Plant response rating, Ryegrass, Italian [3, 19]: 0
Plant response rating, Ryegrass, Italian [3, 20]: 0
Plant response rating (scale 0 to 100), Ryegrass, Italian ([3]; Preemergence, 125 g ai/ha): 30
Plant response rating, Ryegrass, Italian [3, 21]: 0
Plant response rating, Ryegrass, Italian [3, 22]: 0
Plant response rating, Ryegrass, Italian [3, 23]: 0
Ragweed plant response rating [4, 17]: 15
Ragweed plant response rating [4, 18]: 30
Plant response rating, Ragweed [4, 19]: 40
Plant response rating, Ragweed [4, 20]: 70
Plant response rating (scale 0 to 100), Ragweed ([4]; Preemergence, 125 g ai/ha): 90
Plant response rating, Ragweed [4, 21]: 15
Plant response rating, Ragweed [4, 22]: 55
Plant response rating, Ragweed [4, 23]: 65
Waterhemp plant response rating [5, 17]: 15
Waterhemp plant response rating [5, 18]: 30
Plant response rating, Waterhemp [5, 19]: 50
Plant response rating, Waterhemp [5, 20]: 70
Plant response rating (scale 0 to 100), Waterhemp ([5]; Preemergence, 125 g ai/ha): 100
Plant response rating, Waterhemp [5, 21]: 80
Plant response rating, Waterhemp [5, 22]: 100
Plant response rating, Waterhemp [5, 23]: 100
Wheat plant response rating [6, 17]: 0
Wheat plant response rating [6, 18]: 5
Plant response rating, Wheat [6, 19]: 5
Plant response rating, Wheat [6, 20]: 20
Plant response rating (scale 0 to 100), Wheat ([6]; Preemergence, 125 g ai/ha): 0
Plant response rating, Wheat [6, 21]: 0
Plant response rating, Wheat [6, 22]: 0
Plant response rating, Wheat [6, 23]: 0
Lambsquarters plant response rating [7, 17]: 20
Lambsquarters plant response rating [7, 18]: 20
Plant response rating, Lambsquarters [7, 19]: 55
Plant response rating, Lambsquarters [7, 20]: 75
Plant response rating (scale 0 to 100), Lambsquarters ([7]; Preemergence, 125 g ai/ha): 100
Plant response rating, Lambsquarters [7, 21]: 10
Plant response rating, Lambsquarters [7, 22]: 80
Plant response rating, Lambsquarters [7, 23]: 85
Crabgrass, Large plant response rating [8, 17]: 5
Crabgrass, Large plant response rating [8, 18]: 5
Plant response rating, Crabgrass, Large [8, 19]: 5
Plant response rating, Crabgrass, Large [8, 20]: 5
Plant response rating (scale 0 to 100), Crabgrass, Large ([8]; Preemergence, 125 g ai/ha): 100
Plant response rating, Crabgrass, Large [8, 21]: 5
Plant response rating, Crabgrass, Large [8, 22]: 55
Plant response rating, Crabgrass, Large [8, 23]: 100
Galium plant response rating [9, 17]: 30
Galium plant response rating [9, 18]: 40
Plant response rating, Galium [9, 19]: 50
Plant response rating, Galium [9, 20]: 65
Plant response rating (scale 0 to 100), Galium ([9]; Preemergence, 125 g ai/ha): 98
Plant response rating, Galium [9, 21]: 98
Plant response rating, Galium [9, 22]: 85
Plant response rating, Galium [9, 23]: 100
Soybean plant response rating [10, 17]: 65
Soybean plant response rating [10, 18]: 65
Plant response rating, Soybean [10, 19]: 95
Plant response rating, Soybean [10, 20]: 95
Plant response rating (scale 0 to 100), Soybean ([10]; Preemergence, 125 g ai/ha): 95
Plant response rating, Soybean [10, 21]: 35
Plant response rating, Soybean [10, 22]: 55
Plant response rating, Soybean [10, 23]: 65
Corn plant response rating [11, 17]: 0
Corn plant response rating [11, 18]: 0
Plant response rating, Corn [11, 19]: 5
Plant response rating, Corn [11, 20]: 5
Plant response rating (scale 0 to 100), Corn ([11]; Preemergence, 125 g ai/ha): 5
Plant response rating, Corn [11, 21]: 5
Plant response rating, Corn [11, 22]: 0
Plant response rating, Corn [11, 23]: 0
Plant response rating, Wheat [12, 24]: 30
Plant response rating, Wheat [12, 25]: 90
Plant response rating, Pigweed [13, 24]: 100
Plant response rating, Pigweed [13, 25]: 100
Plant response rating, Pigweed [13, 26]: 100
Plant response rating, Pigweed [13, 27]: 100
Plant response rating, Foxtail, Giant [14, 24]: 50
Plant response rating, Foxtail, Giant [14, 25]: 100
Plant response rating, Foxtail, Giant [14, 26]: 80
Plant response rating, Foxtail, Giant [14, 27]: 100
Plant response rating, Barnyardgrass [15, 24]: 50
Plant response rating, Barnyardgrass [15, 25]: 100
Plant response rating, Barnyardgrass [15, 26]: 80
Plant response rating, Barnyardgrass [15, 27]: 100
Plant response rating, Corn [16, 24]: 30
Plant response rating, Corn [16, 25]: 90
